Data on 36 compounds can be found in US6781000B1, “Alpha-ketoamide inhibitors of 20S proteasome” (CV Theurapeutics, Inc., priority 1998, dated 2004).

The structures appear in SMILES notation.

One may read the IC50 as the concentration needed to halve the response being measured.

One assay has as its target T1, chymotrypsin-like activity of 20S proteasome (Bos taurus, UniProt Q2TBX6+Q32KL2).
T1 construct: was purified to homogeneity from bovine brain according to published methods; from tissue; host or cells: bovine brain
In words: 20S proteasome chymotryptic activity inhibition assay (Suc-Leu-Leu-Val-Tyr-AMC cleavage). The note with it: 2 μg 20S proteasome from bovine brain, 50 μM fluorogenic substrate, 15 minutes at 37° C., pH7.5. Type of assay: biochemical. The method in brief: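 Bovine brain 20S proteasome (2 μg) with inhibitor at 0.1-100 μg/ml in 50 mM HEPES, 0.1% SDS, pH7.5. Reaction started with 50 μM Suc-LLVY-AMC, run 15 min at 37° C, stopped with pH 4.0 acetate; liberated AMC read by fluorescence (EX 370 nm, EM 430 nm).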
Regarding `CCC(C)C(NC(=O)C(=O)Cc1c[nH]c2ccccc12)C(=O)NC(CC(C)C)C(=O)NC(C(=O)O)C(C)C` (stereo not shown) [Compound 167], the “IC50 for the inhibition of the chymotrypsin-like activity of 20S proteasome” value (“IC50 for the inhibition” below) was more than 10 mg/L. Same read-out and setting: the value for `CC(C)CC(NC(=O)C(CC1CCCCC1)NC(=O)C(=O)Cc1c[nH]c2ccccc12)C(=O)NC(C(=O)O)C(C)C` (stereo not shown) [Compound 168] was more than 10 mg/L. Still for that read-out and setting: with `CC(C)CC(NC(=O)C(Cc1cccnc1)NC(=O)C(=O)Cc1c[nH]c2ccccc12)C(=O)NCC(=O)O` (stereo not shown) [Compound 169] the figure was more than 10 mg/L; with `CC(C)CC(NC(=O)C(Cc1ccc2ccccc2c1)NC(=O)C(=O)Cc1c[nH]c2ccccc12)C(=O)NCC(=O)O` (stereo not shown) [Compound 170], more than 10 mg/L.

For the compound `CC(C)CC(NC(=O)C(Cc1ccc(-c2ccccc2)cc1)NC(=O)C(=O)Cc1c[nH]c2ccccc12)C(=O)NCC(=O)O` (stereo not shown) [Compound 171], the “IC50 for the inhibition” value was more than 10 mg/L. Turning to `CC(C)CC(NC(=O)C(CC1CCCCC1)NC(=O)C(=O)Cc1c[nH]c2ccccc12)C(=O)NC(C(=O)O)C(C)C` (stereo not shown) [Compound 172], the “IC50 for the inhibition” value was more than 10 mg/L.

As for `CC(C)CC(NC(=O)C(Cc1cccnc1)NC(=O)C(=O)Cc1c[nH]c2ccccc12)C(=O)NC(C(=O)O)C(C)C` (stereo not shown) [Compound 173], the “IC50 for the inhibition” value was more than 10 mg/L.

For `CCCCC(NC(=O)C(CC(C)C)NC(=O)C(Cc1ccc(-c2ccccc2)cc1)NC(=O)C(=O)Cc1c[nH]c2ccccc12)C(=O)O` (stereo not shown) [Compound 174], the “IC50 for the inhibition” value is 5 mg/L.

On to `CC(C)CC(NC(=O)C(Cc1ccc(-c2ccccc2)cc1)NC(=O)C(=O)Cc1c[nH]c2ccccc12)C(=O)NC(Cc1ccccc1)C(=O)O` (stereo not shown) [Compound 175], for which the “IC50 for the inhibition” value was more than 10 mg/L.

In the case of `CC(C)CC(NC(=O)C(Cc1ccc(-c2ccccc2)cc1)NC(=O)C(=O)Cc1c[nH]c2ccccc12)C(=O)NC(CC(=O)O)C(=O)O` (stereo not shown) [Compound 176], the “IC50 for the inhibition” value came to 1 mg/L.

In the case of `CCCCC(NC(=O)C(CC(C)C)NC(=O)C(Cc1ccc2ccccc2c1)NC(=O)C(=O)Cc1c[nH]c2ccccc12)C(=O)O` (stereo not shown) [Compound 178], the “IC50 for the inhibition” value was more than 10 mg/L.

For `CC(C)CC(NC(=O)C(Cc1ccc2ccccc2c1)NC(=O)C(=O)Cc1c[nH]c2ccccc12)C(=O)NC(Cc1ccccc1)C(=O)O` (stereo not shown) [Compound 179], the “IC50 for the inhibition” value was more than 10 mg/L. On the same count and under the same terms, with `CC(C)CC(NC(=O)C(Cc1ccc2ccccc2c1)NC(=O)C(=O)Cc1c[nH]c2ccccc12)C(=O)NC(CC(=O)O)C(=O)O` (stereo not shown) [Compound 180] the figure was 5 mg/L; with `CC(C)CC(NC(=O)C(=O)Cc1c[nH]c2ccccc12)C(=O)NC(Cc1ccccc1)C(=O)O` (stereo not shown) [Compound 182], more than 10 mg/L; with `CC(C)CC(NC(=O)CNC(=O)C(=O)Cc1c[nH]c2ccccc12)C(=O)NCC(=O)O` (stereo not shown) [Compound 184], more than 10 mg/L. Take `CC(C)CC(NC(=O)C(Cc1ccc(-c2ccccc2)cc1)NC(=O)C(=O)Cc1c[nH]c2ccccc12)C(=O)NC(CC(N)=O)C(=O)O` (stereo not shown) [Compound 185]: the “IC50 for the inhibition” value is 5 mg/L. As for `CC(C)CC(NC(=O)C(Cc1ccc(-c2ccccc2)cc1)NC(=O)C(=O)Cc1c[nH]c2ccccc12)C(=O)NC(CCC(N)=O)C(=O)O` (stereo not shown) [Compound 186], the “IC50 for the inhibition” value is more than 10 mg/L.

Regarding `CC(C)CC(NC(=O)C(Cc1ccc(-c2ccccc2)cc1)NC(=O)C(=O)Cc1c[nH]c2ccccc12)C(=O)NC(Cc1ccc(-c2ccccc2)cc1)C(=O)O` (stereo not shown) [Compound 187], the “IC50 for the inhibition” value was more than 10 mg/L. Still for that read-out and setting: the value for `CC(C)CC(NC(=O)C(Cc1ccc(-c2ccccc2)cc1)NC(=O)C(=O)Cc1c[nH]c2ccccc12)C(=O)NCCC(=O)O` (stereo not shown) [Compound 188] was 5 mg/L; that for `CC(C)CC(NC(=O)C(Cc1ccc(-c2ccccc2)cc1)NC(=O)C(=O)Cc1c[nH]c2ccccc12)C(=O)NC(Cc1ccc(-c2ccccc2)cc1)C(=O)O` (stereo not shown) [Compound 189] was more than 10 mg/L. On the same count and under the same terms, the value for `CC(C)CC(NC(=O)C(Cc1ccc(-c2ccccc2)cc1)NC(=O)C(=O)Cc1c[nH]c2ccccc12)C(=O)NC(Cc1c[nH]cn1)C(=O)O` (stereo not shown) [Compound 190] was 3 mg/L. Regarding `CC(C)CC(NC(=O)C(Cc1ccc(-c2ccccc2)cc1)NC(=O)C(=O)Cc1c[nH]c2ccccc12)C(=O)NC(CCCNC(=N)N)C(=O)O` (stereo not shown) [Compound 191], the IC50 is 4.31 µM. With `CC(C)CC(NC(=O)C(Cc1ccc(-c2ccccc2)cc1)NC(=O)C(=O)Cc1c[nH]c2ccccc12)C(=O)NC(Cc1cccnc1)C(=O)O` (stereo not shown) [Compound 192], the “IC50 for the inhibition” value is 3 mg/L. Same read-out and setting: with `CC(C)CC(NC(=O)C(Cc1ccc(-c2ccccc2)cc1)NC(=O)C(=O)Cc1c[nH]c2ccccc12)C(=O)NC(CCCCN)C(=O)O` (stereo not shown) [Compound 193] the figure was more than 10 mg/L; with `CC(C)CC(NC(=O)C(Cc1ccc(-c2ccccc2)cc1)NC(=O)C(=O)Cc1c[nH]c2ccccc12)C(=O)NC(C(=O)O)c1ccccc1` (stereo not shown) [Compound 194], more than 10 mg/L; with `CC(C)CC(NC(=O)C(Cc1ccc(-c2ccccc2)cc1)NC(=O)C(=O)Cc1c[nH]c2ccccc12)C(=O)NC(CC(=O)O)C(=O)O` (stereo not shown) [Compound 195], more than 10 mg/L. On the same count and under the same terms, with `CC(C)CC(NC(=O)C(Cc1ccc(-c2ccccc2)cc1)NC(=O)C(=O)Cc1c[nH]c2ccccc12)C(=O)NC(Cc1c[nH]cn1)C(=O)O` (stereo not shown) [Compound 196] the figure was more than 10 mg/L. The same measure, in the same setting: with `CC(C)CC(NC(=O)C(Cc1ccc(-c2ccccc2)cc1)NC(=O)C(=O)Cc1c[nH]c2ccccc12)C(=O)NC(Cc1cscn1)C(=O)O` (stereo not shown) [Compound 198] the figure was more than 10 mg/L.

Regarding `CCCC(NC(=O)C(=O)Cc1c[nH]c2ccccc12)C(=O)NC(CC(C)C)C(=O)NC(C(=O)O)C(C)C` (stereo not shown) [Compound 199], the “IC50 for the inhibition” value was more than 10 mg/L. `CC(C)C[C@@H](NC(=O)[C@H](CC(=O)O)NC(=O)C(=O)Cc1c[nH]c2ccccc12)C(=O)N[C@H](C(=O)O)C(C)C` [Compound 200]: the half-inhibitory concentration (IC50) was more than 18.8 µM.

Consider `CCCC(NC(=O)C(=O)Cc1c[nH]c2ccccc12)C(=O)NC(CC(C)C)C(=O)NC(C(=O)O)C(C)C` (stereo not shown) [Compound 201], for which the “IC50 for the inhibition” value is more than 10 mg/L.

`CC(C)C(NC(=O)C(NC(=O)C(Cc1ccc(O)cc1)NC(=O)C(=O)Cc1c[nH]c2ccccc12)C(C)C)C(=O)O` (stereo not shown) [Compound 202]: the “IC50 for the inhibition” value is more than 10 mg/L. Same read-out and setting: the value for `CC(C)C(NC(=O)C(NC(=O)C(NC(=O)C(=O)Cc1c[nH]c2ccccc12)C(C)C)C(C)C)C(=O)O` (stereo not shown) [Compound 203] was more than 10 mg/L. In the case of `CC(C)CC(NC(=O)C(Cc1ccc2ccccc2c1)NC(=O)C(=O)Cc1c[nH]c2ccccc12)C(=O)NC(Cc1c[nH]cn1)C(=O)O` (stereo not shown) [Compound 204], the “IC50 for the inhibition” value is more than 10 mg/L. The same measure, in the same setting: the value for `CC(C)CC(NC(=O)C(Cc1ccc2ccccc2c1)NC(=O)C(=O)Cc1c[nH]c2ccccc12)C(=O)NC(CCCNC(=N)N)C(=O)O` (stereo not shown) [Compound 205] was more than 10 mg/L; that for `CC(C)CC(NC(=O)C(Cc1ccc2ccccc2c1)NC(=O)C(=O)Cc1c[nH]c2ccccc12)C(=O)NC(Cc1cccnc1)C(=O)O` (stereo not shown) [Compound 206] was more than 10 mg/L.

The next assay addresses T2, peptidylglutamyl activity of 20S proteasome (Bos taurus, UniProt Q2TBP0+Q3MHN0).
T2 construct: was purified to homogeneity from bovine brain according to published methods; from tissue; host or cells: bovine brain
In words: 20S proteasome peptidylglutamyl activity inhibition assay (CBZ-D-Ala-Leu-Glu-AMC cleavage). Type of assay: biochemical. The note with it: Example 6: 2 μg 20S proteasome from bovine brain, substrate CBZ D-Ala-Leu-Glu-AMC, 15 minutes at 37° C. As to the method: Compounds of this invention prepared according to the method of Example 1 were also tested as follows. The 20S catalytic subunit of the proteasome (also known as the multicatalytic proteinase complex) was purified to homogeneity from bovine brain according to published methods (Wilk S. and Orlowski, M. 1983, 40 842 J. Neurochem). […] of the complex is measured by the increase in fluorescence following cleavage of the substrate peptide CBZ D-Ala-Leu-Glu-(7-amino-4-methyl coumarin). The standard in vitro assay consists of 2 μg 20S proteasome, 0.1-100 μg/ml proteasome inhibitor in […] 50 mM HEPES, containing 0.1% sodium dodecyl sulphate, pH 7.5. The proteolytic reaction is initiated by the addition of […] fluorogenic peptide substrate and allowed to progress for 15 minutes at 37° C. The reaction is terminated by the addition of […] 100 mM acetate buffer, pH 4.0. The rate of proteolysis is directly proportional to the amount of liberated aminomethylcoumarin which is measured by fluorescent spectroscopy (EX 370 nm, EM 430 nm). Compounds 1-207 were tested for peptidylglutamyl activity inhibition at >10 μg/mL. Compound 190 was active at 5 μg/mL.
For the compound `CC(C)CC(NC(=O)C(Cc1ccc(-c2ccccc2)cc1)NC(=O)C(=O)Cc1c[nH]c2ccccc12)C(=O)NC(Cc1c[nH]cn1)C(=O)O` (stereo not shown) [Compound 190], the “peptidylglutamyl activity inhibition, active at” value is 5 µg/mL.
